Data: patent US20170240535A1, “HDAC1/2 INHIBITORS FOR THE TREATMENT OF NEURODEGENERATIVE AND/OR COGNITIVE DISORDERS” (Regenacy Pharmaceuticals, LLC, priority 2016, published 2017)
“Also recorded” adds a separate entry of the source. Where two headings read alike, the source gives them in different places.

Key:
[1] = target: T1, HDAC1 (Homo sapiens, UniProt Q13547); assay: HDAC enzyme assay, HDAC1; assay type: biochemical; settings: enzyme and compound incubated 24 hours at room temperature
T1 construct: purchased BPS Biosciences
T1 sequence (Q13547 whole entry): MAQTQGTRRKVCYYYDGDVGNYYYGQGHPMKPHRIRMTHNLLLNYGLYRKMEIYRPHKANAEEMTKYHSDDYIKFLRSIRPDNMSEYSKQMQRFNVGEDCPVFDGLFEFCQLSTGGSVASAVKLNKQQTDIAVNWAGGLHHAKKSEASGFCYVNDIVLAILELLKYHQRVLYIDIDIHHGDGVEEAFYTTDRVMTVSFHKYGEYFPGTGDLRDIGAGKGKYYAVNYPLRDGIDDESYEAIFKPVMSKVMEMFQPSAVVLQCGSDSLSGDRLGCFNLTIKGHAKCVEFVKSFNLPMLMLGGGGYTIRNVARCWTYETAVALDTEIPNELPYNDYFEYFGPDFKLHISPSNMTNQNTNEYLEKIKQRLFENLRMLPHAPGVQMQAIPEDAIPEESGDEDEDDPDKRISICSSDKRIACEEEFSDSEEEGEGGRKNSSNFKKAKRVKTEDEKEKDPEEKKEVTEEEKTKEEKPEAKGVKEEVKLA
Method: Compounds for testing were diluted in DMSO to 50 fold the final concentration and a ten point three fold dilution series was made. The compounds were diluted in assay buffer (50 mM HEPES, pH 7.4, 100 mM KCl, 0.001% Tween-20, 0.05% BSA, 20 μM TCEP) to 6 fold their final concentration. The HDAC enzymes (purchased from BPS Biosciences) were diluted to 1.5 fold their final concentration in assay buffer. The tripeptide substrate and trypsin at 0.05 μM final concentration were diluted in assay buffer at 6 fold their final concentration. The final enzyme concentrations used in these assays were 3.3 ng/ml (HDAC1), 0.2 ng/ml (HDAC2) and 0.08 ng/ml (HDAC3). The final substrate concentrations used were 16 μM (HDAC1), 10 μM (HDAC2) and 17 μM (HDAC3). Five μl of compound and 20 μl of enzyme were added to wells of a black, opaque 384 well plate in duplicate. Enzyme and compound were incubated together at room temperature for 24 hours. Five μl of substrate was added to each well, the plate was shaken for 60 seconds and placed into a Victor 2 microtiter plate reader. The development of fluorescence was monitored for 60 min and the linear rate of the reaction was calculated. The IC50 was determined using Graph Pad Prism by a four parameter curve fit.

[2] = Pharmacokinetics of Compound 1 in plasma and brain after IP and PO administration (discrete PK); assay type: in vivo; settings: male C57BL/6 mice; for Kp / Cmax / Tmax / half-life / AUC(0-inf) / AUC(0-t): mouse; for Kp: brain/plasma, read-out: AUCbrain/AUCplasma; for half-life: read-out: Terminal t1/2 (converted)
Method: Male C57Bl/6 mice were fasted overnight. Compound 1 was dissolved in 20% HydroxyPropyl-β-Cyclodextran in water. Fifteen animals per experimental arm were dosed by intraperitoneal injection or by oral gavage. Blood was collected via retro orbital puncture into K2EDTA tubes at 5 minutes, 15 minutes, 30 minutes, 1 hour, 2 hours, 4 hours, 8 hours and 24 hours after dosing. The blood was centrifuged at 2000 g for 5 minutes at 4° C. to obtain plasma. The plasma was extracted with acetonitrile and the level of compound was analyzed by LC/MS/MS. The level of compound in plasma was calculated from a standard curve in mouse plasma. For brain levels, animals were sacrificed at 15 minutes, 1 hour, 4 hours, 8 hours and 24 hours. Brains were removed and homogenized in acetonitrile and extracted. The level of compound in brain was calculated from a standard curve in mouse brain tissue. The maximum concentration, half-life and area under the curve were calculated using WinNonLin software. The ratio of area under the curve for plasma and brain samples was calculated to produce the brain/plasma ratio.

[3] = test system: aged mice; assay: Morris Water Maze, young and aged mice; assay type: in vivo
Method: The ability of HDAC1/2 inhibitor Compound 1 to improve cognitive deficits in aged mice was tested by InterVivo Solutions (Toronto, Canada). Young (3 months old) and aged (18 months old) mice were compared in a Morris Water Maze to measure differences in learning and memory.
Mice were first placed in a pool of water and trained to swim to a visible flagged platform (the cued task). The mice received 3 trails per day for 5 days and the time it took for the mice to find the platform was timed. Young mice and aged mice performed equally well at this task, indicating there was no difference in swimming speed between the two cohorts of mice.
Next, mice were trained in a place task, in which the platform is submerged and hidden with flags to indicate the fixed location of the platform. The mice were trained for 4 days with 3 trials per day.

[4] = test system: APPSwDI/NOS2−/− transgenic mice; assay: Radial arm water maze (RAWM) in APPSwDI/NOS2−/− model of Alzheimer's disease; assay type: in vivo; settings: 10 mg/kg orally daily for 4 weeks; for RAWM escape latency / RAWM number of errors: vs vehicle treated transgenic / wild type
Method: The ability of HDAC1/2 inhibitor Compound 1 to improve cognitive deficits of APPSwDI/NOS2−/− transgenic mice was tested in the radial arm water maze (RAWM).
The Study was performed on APPSwDI/NOS2−/− transgenic (mouse model of Alzheimer's disease) as well as non-transgenic mice, bred at Charles River (Finland). Animals for the main study are 10.5 months old at start. A total number of 45 transgenic (divided into 22 untreated and 23 treated) and 25 non-transgenic controls are used for the study
Transgenic mice are allocated to two different treatment groups, either treated with vehicle (20% HP-β-CD in water) or Compound 1 (dosage 10 mg/kg) administered orally via gavage daily for 4 weeks total. The application volume is 10 ml/kg/dose whereby each animal is weighed once a week and receives a volume according to its individual actual weight.
Spatial learning capacities of all animals were tested in the Radial Arm Water Maze (RAWM). Briefly a six arm maze was submerged in a pool of water, and a platform was placed at the end of one arm. The mouse received 15 trials per day for 2 days and on each trial was started in a different arm while the arm containing the platform remained the same for each mouse. The first 10 trials were considered training and alternated between a visible and a hidden platform. The final trials for day 1 and all trials on day 2 were tested with a hidden platform. The number of errors (incorrect arm entries) were counted over a 1 min period. The errors were averaged over six trials resulting in 5 blocks for the 2 day period. Latency to find the platform was also recorded, and averaged similarly as the errors.

[5] = young mice (3 months old), 10 mg/kg/day, 4 weeks
[6] = APPSwDI/NOS2−/− mice, listed as compound 1, 10 mg/kg

Structure (SMILES): Nc1ccc(-c2ccccc2)cc1NC(=O)c1cc2ccc(N3CCNCC3)cc2cn1 [Compound 1]
- IC50 [1]: 5 nM
- brain penetrance (from brain/plasma AUC ratios) ([2]; IP or PO, 3 and 10 mg/kg): highly brain penetrant
- AUCINF-brain ([2]; brain, IP 3 mg/kg): 21015 ng·h/g
- AUClast-brain ([2]; brain, IP 3 mg/kg): 19737 ng·h/g
- AUCINF-brain ([2]; brain, IP 10 mg/kg): 87609 ng·h/g
- AUClast-brain ([2]; brain, IP 10 mg/kg): 78978 ng·h/g
- AUCINF-brain ([2]; brain, PO 3 mg/kg): 10651 ng·h/g
- AUClast-brain ([2]; brain, PO 3 mg/kg): 10019 ng·h/g
- AUCINF-brain ([2]; brain, PO 10 mg/kg): 58481 ng·h/g
- AUClast-brain ([2]; brain, PO 10 mg/kg): 53716 ng·h/g
- Kp ([2]; IP 3 mg/kg): 15.1
- Kp ([2]; IP 10 mg/kg): 15.9
- Kp ([2]; PO 3 mg/kg): 6.81
- Kp ([2]; PO 10 mg/kg): 10.8
- Cmax ([2]; brain, IP 3 mg/kg): 1490 ng/g
- Tmax ([2]; brain, IP 3 mg/kg): 4 h
- half-life ([2]; brain, IP 3 mg/kg): 5.87 h
- Cmax ([2]; brain, IP 10 mg/kg): 5320 ng/g
- Tmax ([2]; brain, IP 10 mg/kg): 4 h
- half-life ([2]; brain, IP 10 mg/kg): 7.13 h
- Cmax ([2]; brain, PO 3 mg/kg): 743 ng/g
- Tmax ([2]; brain, PO 3 mg/kg): 4 h
- half-life ([2]; brain, PO 3 mg/kg): 5.8 h
- Cmax ([2]; brain, PO 10 mg/kg): 3650 ng/g
- Tmax ([2]; brain, PO 10 mg/kg): 8 h
- half-life ([2]; brain, PO 10 mg/kg): 6.76 h
- AUC(0-inf) ([2]; plasma, IP 3 mg/kg): 1320 ng·h/mL
- AUC(0-t) ([2]; plasma, IP 3 mg/kg): 1310 ng·h/mL
- Cmax ([2]; plasma, IP 3 mg/kg): 318 ng/mL
- Tmax ([2]; plasma, IP 3 mg/kg): 0.5 h
- half-life ([2]; plasma, IP 3 mg/kg): 3.88 h
- AUC(0-inf) ([2]; plasma, IP 10 mg/kg): 5040 ng·h/mL
- AUC(0-t) ([2]; plasma, IP 10 mg/kg): 4960 ng·h/mL
- Cmax ([2]; plasma, IP 10 mg/kg): 1020 ng/mL
- Tmax ([2]; plasma, IP 10 mg/kg): 0.25 h
- half-life ([2]; plasma, IP 10 mg/kg): 4.2 h
- AUC(0-inf) ([2]; plasma, PO 3 mg/kg): 1480 ng·h/mL
- AUC(0-t) ([2]; plasma, PO 3 mg/kg): 1470 ng·h/mL
- Cmax ([2]; plasma, PO 3 mg/kg): 135 ng/mL
- Tmax ([2]; plasma, PO 3 mg/kg): 2 h
- half-life ([2]; plasma, PO 3 mg/kg): 3.44 h
- AUC(0-inf) ([2]; plasma, PO 10 mg/kg): 5060 ng·h/mL
- AUC(0-t) ([2]; plasma, PO 10 mg/kg): 4990 ng·h/mL
- Cmax ([2]; plasma, PO 10 mg/kg): 561 ng/mL
- Tmax ([2]; plasma, PO 10 mg/kg): 1 h
- half-life ([2]; plasma, PO 10 mg/kg): 4.08 h
- learning rate in place task ([3]; aged mice (18 months old), 10 mg/kg/day, 4 weeks): learn at a rate greater than the young untreated cohort
- performance in place test vs corresponding untreated mice ([3]; young and aged mice, 10 mg/kg/day for 4 weeks): perform better in the place test than the corresponding untreated mice
- learning rate in place task [3, 5]: dramatic improvement in learning rate
- reduction in escape latency as compared to untreated mice, place task [3, 5]: 25%
- tolerability ([4]; APPSwDI/NOS2−/− mice): very well tolerated in all animals
- learning behavior during training ([4]; APPSwDI/NOS2−/− mice, vs vehicle treated transgenic): significantly better learning behavior
- RAWM escape latency ([4]; APPSwDI/NOS2−/− mice, 10 mg/kg): improved escape latency time; also recorded: reversed the increased latency
- RAWM number of errors ([4]; APPSwDI/NOS2−/− mice, 10 mg/kg): decrease in the number of errors; also recorded: reversed the increased latency and number of errors
- RAWM escape latency [4, 6]: not statistically different from wild type mice
- RAWM number of errors [4, 6]: not statistically different from wild type mice
- body weight ([4]; treatment groups): no differences in body weight
